Structures can show the parent of a compound that is named as a salt.
Legend:
mouse B16F10 cells = assay: Recovery of cell viability after tunicamycin-induced stress, MTT assay; assay type: cell-based; details: B16-F10, tunicamycin 300 ng/ml, 72 h
Protocol: (§1) Methods used for Experimental Data: Mouse B16F10 or human A375 cells were seeded (5000 cells per well) in 96-well plates for 24 h. Cells were then treated in quadruplicate with multiple concentrations of compounds for 6 h. The compounds were dissolved in DMSO at 1000× concentration and then diluted to final concentration directly in cell culture medium. The vehicle control (VC) contains equal amount of DMSO. Cells were then treated with tunicamycin (Tm) (300 ng/ml for B16F10 and 100 ng/ml for A375 cells) and after 72 h of treatment, MTT assay was performed. Cell growth in vehicle control was calculated as 100% and effect of the compounds over tunicamycin treatment was calculated accordingly. EC50 values were calculated using GraphPad Prism 7 software.

human A375 cells = assay: as above; assay type: cell-based; details: A-375, tunicamycin 100 ng/ml, 72 h
Protocol: as §1

Row | SMILES | EC50 (mouse B16F10 cells) [µM] | EC50 (human A375 cells) [µM]
1 | O=C(Cc1ccc(-c2ccc(Cl)cc2Cl)s1)NCCCN1CCOCC1 [AB1110, 2-(5-(2,4-dichlorophenyl)thiophen-2-yl)-N-(3-morpholinopropyl)acetamide] | 6.24 | 62.7
2 | COc1ccc(-c2ccc(CC(=O)NCCN3CCOCC3)s2)cc1 [AB1115, 2-(5-(4-methoxyphenyl)thiophen-2-yl)-N-(2-morpholinoethyl)acetamide] | 53.4 | 
3 | Cc1cc(C)n(-c2cccc(-c3ccc(CC(=O)NCCN4CCOCC4)s3)c2)n1 [AB1117, 2-(5-(3-(3,5-dimethyl-1H-pyrazol-1-yl)phenyl)thiophen-2-yl)-N-(2-morpholinoethyl) acetamide] | 20.7 | 26.7
4 | O=C(Cc1ccc(-c2cccc(F)c2)s1)NCCN1CCOCC1 [AB1108, 2-(5-(3-fluorophenyl)thiophen-2-yl)-N-(2-morpholinoethyl)acetamide] | 43.7 | 34.2
5 | O=C(Cc1ccc(-c2ccccc2)s1)NCCN1CCOCC1 [AB1102, N-(2-morpholinoethyl)-2-(5-phenylthiophen-2-yl)acetamide] | 55.7 | 71.1
6 | O=C(Cc1ccc(-c2ccc(Cl)cc2Cl)s1)NCCN1CCOCC1 [AB1099, 2-(5-(2,4-dichlorophenyl)thiophen-2-yl)-N-(2-morpholinoethyl)acetamide] | 10 | 17.3
7 | O=C(Cc1ccc(-c2ccc(Cl)cc2)s1)NCCCN1CCOCC1 [AB1118, 2-(5-(4-chlorophenyl)thiophen-2-yl)-N-(3-morpholinopropyl)acetamide] | 19.5 | 31.6
8 | O=C(Cc1ccc(-c2ccc(Cl)cc2Cl)s1)NCCN1CCS(=O)(=O)CC1 [AB1109, 2-(5-(2,4-dichlorophenyl)thiophen-2-yl)-N-(2-(1,1-dioxidothiomorpholino)ethyl)acetamide] | 6.49 | 13.9
9 | O=C(Cc1ccc(-c2ccc(Cl)cc2)s1)NCCN1CCOCC1 [AB1062, 2-(5-(4-chlorophenyl)thiophen-2-yl)-N-(2-morpholinoethyl)acetamide hydrochloride] | 32.1 | 48.5
10 | O=C(Cc1ccc(-c2cccc(Cl)c2)s1)NCCN1CCOCC1 [AB1113, 2-(5-(3-chlorophenyl)thiophen-2-yl)-N-(2-morpholinoethyl)acetamide] | 46.7 | 18.3
11 | O=C(Cc1ccc(-c2ccc(C(F)(F)F)cc2)s1)NCCN1CCOCC1 [AB1116, N-(2-morpholinoethyl)-2-(5-(4-(trifluoromethyl)phenyl)thiophen-2-yl)acetamide] | 13.7 | 
12 | O=C(Cc1ccc(-c2ccc(F)cc2)s1)NCCN1CCOCC1 [AB1093, 2-(5-(4-fluorophenyl)thiophen-2-yl)-N-(2-morpholinoethyl)acetamide] | 36.2 | 31.2

Results, then the molecule that gave them:

Row | EC50 (mouse B16F10 cells) [µM] | EC50 (human A375 cells) [µM] | SMILES
13 |  | 5.15 | O=C(Cc1ccc(-c2cc(Cl)cc(Cl)c2)s1)NCCN1CCS(=O)(=O)CC1 [AB1163, 2-(5-(3,5-dichlorophenyl)thiophen-2-yl)-N-(2-(1,1-dioxidothiomorpholino)ethyl)acetamide]
14 | 12.5 | 4.26 | O=C(Cc1ccc(-c2cc(Cl)cc(Cl)c2)s1)NCCN1CCOCC1 [AB1114, 2-(5-(3,5-dichlorophenyl)thiophen-2-yl)-N-(2-morpholinoethyl)acetamide]
15 | 9.51 | 8.47 | O=C(Cc1ccc(-c2ccc(Cl)cc2Cl)s1)NCCCN1CCS(=O)(=O)CC1 [AB1119, 2-(5-(2,4-dichlorophenyl)thiophen-2-yl)-N-(3-(1,1-dioxidothiomorpholino)propyl)acetamide]
16 |  | 6.02 | O=C(Cc1ccc(-c2cc(Cl)cc(Cl)c2)s1)NCCCN1CCOCC1 [AB1162, 2-(5-(3,5-dichlorophenyl)thiophen-2-yl)-N-(3-morpholinopropyl)acetamide]
17 | 6.55 | 5.22 | CCCCNC(=O)Cc1ccc(-c2ccc(Cl)cc2)s1 [AB1010, N-butyl-2-(5-(4-chlorophenyl)thiophen-2-yl)acetamide]
18 | 9.72 | 3.7 | O=C(Cc1ccc(-c2cc(Cl)cc(Cl)c2)s1)NCCCN1CCS(=O)(=O)CC1 [AB1164, 2-(5-(3,5-dichlorophenyl)thiophen-2-yl)-N-(3-(1,1-dioxidothiomorpholino)propyl)acetamide]
19 |  | 4.86 | O=C(Cc1ccc(-c2ccc(Cl)cc2)s1)N1CCSCC1 [AB1152, 2-(5-(4-chlorophenyl)thiophen-2-yl)-1-thiomorpholinoethan-1-one]
20 |  | 10.6 | O=C(Cc1ccc(-c2ccc(Cl)cc2)s1)N1CCOCC1 [AB1151, 2-(5-(4-chlorophenyl)thiophen-2-yl)-1-morpholinoethan-1-one]
